Values quoted from earlier work, collected in PMC11187563, “The importance of tyrosines in multimers of cyclic RGD nonapeptides: towards αvβ6-integrin targeted radiotherapeutics” (RSC Medicinal Chemistry, 2024).

Test system: αvβ6-integrin
Conditions: compared with its two siblings with one Phe replaced by a Tyr; cited from earlier work

cyclo[FRGDLAFp(NMe)K]
αvβ6-integrin affinity and subtype selectivity: slightly better αvβ6-integrin affinity and subtype selectivity
